# Patent US10583173B2, “Methods of treating or preventing pruritis by blocking natriuretic polypeptide b” (priority 2013, dated 2020)
# Where no end group is shown, it is not given here.
# Columns and labels:
# Format in all cases: in vivo, mouse
# [1] = system: neurons in the dorsal root ganglion (DRG) and superficial dorsal horn (sDH); assay: Immediate early gene induction (Egr1 in DRG, cFos in sDH) by ISH
# Procedure: To gain additional evidence that systemic Nppb activates a central itch pathway, the pattern of cellular activation of neurons in the dorsal root ganglion (DRG) and superficial dorsal horn (sDH) was compared by analyzing induction of immediate early gene expression. The skin was stimulated by pruritogen and injections of noxious compounds and the robust induction of immediate early genes, Egr1 and cFos (in the DRG and sDH respectively) was evaluated. Intradermal injection of chloroquine was utilized to excite MrgprA3 peripheral DRG neurons. […] The number of positive Egr-1-positive cells correlated well with the previously reported numbers of MrgprA3-expressing receptor neurons in DRG. […] Therefore, the initial and later cellular stages of the pruriceptive neural pathway could be reliably monitored biochemically and anatomically and itch signaling could be distinguished from that elicited by the noxious agent formalin.
# It was reasoned that if ivNppb was directly activating centrally, then induction of immediate early gene expression would be seen in sDH-neurons and not DRG neurons. […] As expected from the generalized scratching responses evoked by ivNppb, in both hemispheres of the spinal cord and along the entire length of the spinal cord, cFos-activated neurons could be detected. Furthermore, also consistent with the itch-behavioral result, the profile of cFos-activated neurons in the sDH was similar to that generated by epidermal injection of chloroquine.
# mice [2] = assay: Scratching after intradermal injection of pruritogens; settings: control (wild-type) animals; doses of Table 1
# Procedure: (§1) Itch inducing substances (see Table 1) were injected intradermally into the shoulder of mice and numbers of scratching bouts assessed over 30 minutes. […] Table 1 also indicates the receptors or mechanisms believed to be activated by the various compounds in the itch response pathway.
# Intradermal injections were performed. The number of scratching bouts for substances that directly activate pruriceptors was recorded. The number of scratching bouts after injection with compound 48/80, which causes itch via an indirect route (McNeil et al., Neuroscience Bulletin, 28:100 (2012)), was also recorded. All of these agents (Table 1) reliably triggered multiple bouts of scratching in control animals (FIG. 1D), but Nppb^−/− mice were almost completely insensitive to the full range of pruritic substances tested (FIG. 1D).
# mice [3] = assay: Scratching after intrathecal injection of GRP
# Text: (§2) All experiments using animals followed NIH guidelines and were approved by the National Institute of Dental and Craniofacial ACUC. The targeted JM8A3 ES-cell clone A04 with disruption of the Nppb gene was obtained from Mouse Biology Program (MBP), UC Davis and was used to generate chimeric mice. Chimeras were crossed with C57BL/6 mice and heterozygous offspring were mated to generate paired knockouts and controls. Transgenic (Tg) (gastrin releasing peptide (GRP)-enhanced green fluorescent protein (EGFP)) animals (Gong et al., Nature, 425:917 (2003)) were employed to localize expression of GRP. Male C57BL/6 (8-14 weeks) mice were used for selective toxin ablation and GRP-antagonist itch experiments. Ablation of Npra and GRP-receptor-expressing spinal cord interneurons was accomplished by intrathecal (segment L3/4) injection of Nppb-saporin (5 μg in 10 μl; Advanced targeting Systems, San Diego, Calif.) and GRP-saporin (2.5 μg) respectively. Experiments were initiated two weeks after toxin injection.
# (§3) Pretreatment with GRP antagonist deamino-Phe19,D-Ala24,D-Pro26-D-Phe27-GRP (Yegen et al., Regulatory Peptides, 61:175 (1996)) (1 nM in 10 μl) was used to block GRP-receptor.
# (§4) How Nppb induces this stereotyped scratch response was investigated. It was hypothesized that because this peptide is prominently expressed in somatosensory neurons, the most plausible explanation for its role would be if it acted as a specific itch-related neuromodulator (or neurotransmitter) in the spinal cord. […] Intrathecal injection of Nppb into Nppb^−/− mice also led to an equivalent phenotype (FIG. 1E). No significant differences in response between genotypes were found (Student's t-test). Loss of Nppb in sensory afferents was thus responsible for the pruriceptive deficits seen in mutant mice. Without being bound to a particular theory or mechanism, it is believed that Nppb-expression delineates the subset of somatosensory neurons that detect pruritic agents and that central release of Nppb from these neurons is necessary for the itch response.
# mice [4] = assay: Scratching after lumbar intrathecal injection of Nppb
# Text: as §2, §3, §4
# Wild-type mice (C57BL/6) [5] = assay: Scratching after intravenous administration of natriuretic peptides (ivNppb)
# Procedure: Elevated blood Nppb is found in kidney disalysis patients. Accordingly, the effect of elevated blood Nppb on itching in mice was evaluated. Wild-type mice (C57BL/6) were intravenously administered Nppb and were untreated or treated with GRP-antagonist or Nppb saporin. The bouts of scratching were counted.
# Nppb deficient or wild-type (C57BL/6) mice were intravenously (i.v.) administered Nppb, Nppa, or Nppc, and the bouts of scratches were measured.
# To mimic the high concentration of Nppb found in renal itch patients, mice were i.v. administered Nppb (via tail vein injection). […] Approximately ten minutes after administration of Nppb, mice began to persistently scratch their flank, face, hind quarters and abdomens. This behavior slowly diminished and almost completely ceased approximately 1 hour after injection. The induction of scratching was dose dependent, with a 1.2 μg/kg dose producing saturating behavioral responses. In all subsequent experiments, a dose of 1.2 μg/kg Nppb (abbreviated as “ivNppb”) was used, and bouts of scratching were counted over a period of 1 hour.
# Npra neurons themselves express GRP and are thought to release GRP which, in turn, activates GRPR-cells.
# Wild-type mice (C57BL/6) [6] = assay: Histamine-induced scratching (bouts of scratching after intradermal histamine); settings: intradermal histamine 100 μg in 10 μl, scratching bouts over 30 minutes, vs histamine alone/untreated
# Text: as §2, §1, §3
# Wild-type mice (C57BL/6) were administered histamine alone, a combination of histamine and a GRP antagonist, or a combination of histamine and anantin. […] to another receptor in the itch pathway and was used as a control. Bouts of scratching were counted.
# [7] = lumbar 4-5 segment intrathecal injection
compound,measurement,setting,value
CCN(CC)CCCC(C)Nc1ccnc2cc(Cl)ccc12 (stereo not drawn) [chloroquine],Egr1 expression in DRG neurons,[1],induced Egr1 expression
same,cFos induction in superficial dorsal horn (sDH) neurons,[1],induced cFos expression
same,scratching / itch-behavior after intradermal injection of pruritic agent,mice [2],triggered itch-behavior
C=O [formalin],Egr1 expression in DRG neurons,[1],induced Egr-1 expression in a far larger number
same,cFos induction in superficial dorsal horn (sDH) neurons,[1],induced cFos expression
"GRP: gastrin releasing peptide (APVSTGAGGGTVLAKMYPRGSHWAVGHLM; ends and bridges not checked; UniProt Q8R1I2 24-52, looked up)",itch responses induced by intrathecal injection of the peptide,"mice [3]; GRP 1 nM in 10 μl, mutant and control animals",triggered itch responses
same,onset of pruriceptive response after intrathecal GRP,mice [3]; [7],~5 min
Nppb,scratching induced by intrathecal injection of the peptide,"mice [4]; Nppb 5 μg in 10 μl, lumbar 4-5 segment, control and Nppb−/− mice",induced repeated bouts of scratching
same,onset of pruriceptive response after intrathecal Nppb,mice [4]; [7],~5 min
same,scratching/itch induced by i.v. administration of the peptide,Wild-type mice (C57BL/6) [5]; i.v. tail vein,robust whole body scratching behavior
same,time after i.v. administration at which persistent scratching began,Wild-type mice (C57BL/6) [5]; i.v. tail vein,Approximately ten
same,time after i.v. injection at which scratching almost completely ceased,Wild-type mice (C57BL/6) [5]; i.v. tail vein,approximately 1 hour
same,dose producing saturating behavioral responses (scratching),"Wild-type mice (C57BL/6) [5]; i.v., dose dependent",1.2 µg/kg
same,Egr1 expression in DRG neurons,[1],did not induce expression of Egr1
same,cFos induction in superficial dorsal horn (sDH) neurons,[1],caused cFos induction
"Nppc: C-type natriuretic peptide, selective agonist for natriuretic peptide receptor Nprb (GLSKGCFGLKLDRIGSMSGLGC; ends and bridges not checked; cysteine pairing not given here; UniProt Q61839 105-126, looked up)",scratching/itch induced by i.v. administration of the peptide,"Wild-type mice (C57BL/6) [5]; i.v. (tail vein), listed as C-type natriuretic peptide",produced no observable reaction
same,scratching/itch induced by i.v. administration of the peptide,Wild-type mice (C57BL/6) [5]; i.v. tail vein,did not induce significant itch
anantin,"bouts of scratching after histamine injection, effect of treatment",Wild-type mice (C57BL/6) [6],attenuated histamine-induced itch
same,"bouts of scratching after histamine injection, effect of treatment",Wild-type mice (C57BL/6) [6]; listed as Anantin,statistically different
"deamino-Phe19,D-Ala24,D-Pro26-D-Phe27-GRP [GRP antagonist]","bouts of scratching after histamine injection, effect of treatment",Wild-type mice (C57BL/6) [6],attenuated scratching
same,"bouts of scratching after histamine injection, effect of treatment",Wild-type mice (C57BL/6) [6]; listed as GRP-antagonist,statistically different
same,"scratching induced by lumbar intrathecal injection of Nppb, effect of pretreatment","mice [4]; Nppb 5 μg in 10 μl intrathecal, vs untreated mice",strongly attenuated
same,"scratching induced by intrathecal GRP, effect of pretreatment","mice [3]; GRP 1 nM in 10 μl intrathecal, vs untreated mice",attenuated scratching
same,"i.v. Nppb-induced itch, effect of pretreatment","Wild-type mice (C57BL/6) [5]; i.v. Nppb, bouts of scratching, vs untreated",blocked
